# Results from patent US20250000843A1, “LIGNAN-INSPIRED COMPOUNDS, METHODS OF MAKING, AND USING THEREOF” (IOWAIBO, INC., priority 2023, published 2025).
# Tests used:
# Assay type in all cases: cell-based
# [1] = tested on: PC3, a human prostate cancer cell line; experiment: MTT toxicity assay in PC3 prostate cancer cells
# Procedure: Toxicity of the dibenzyl butyl lactone derivative (3-[(3,4-dimethoxyphenyl)cyclopentyl], 4-[(3-hydroxyphenol)methyl]oxolan-2-one) in breast cancer cells was evaluated using MTT assay. The MTT toxicity test is a colorimetric assay to measure cells' metabolic activity by serving as a substrate of cellular enzymes that reduce the tetrazolium orange dye, MTT (3-(4,5-Dimethylthiazol-2-yl)-2,5-diphenyltetrazolium bromide) to its insoluble, formazan, giving a purple color. The rate of conversion is directly proportional to cells' mitochondrial metabolic activity via NAD (P) H-dependent cellular oxidoreductase enzymes and serves as a surrogate marker of cell viability.
# Cells previously expanded were seeded in 96 well plates at 1.9×10^5 and 9.6×10^4 cells/plate for 24- and 72-hours treatment respectively. This concentration is known to show the best window for the MTT assay, with better sensitivity and low variability.
# 5 mg of powdered enterolactone, dibenzyl butyl lactone derivative enantiomer A, and dibenzyl butyl lactone derivative enantiomer B were dissolved in 500 μl of DMSO at room temperature. Eight-point curves, ⅓ dilutions (highest concentration 125 μM), were prepared.
# Twenty-four hours following the seeding process, the cells were washed once with phosphate buffered saline (PBS) and treated with the respective compounds in cell culture media. Each condition was tested in triplicates. For positive and negative controls, 8 mM methyl methane sulfonate (MMS) and DMSO 100% were used respectively.
# Following compound addition, the plates were incubated for 24 and 72 hours. After the treatment period, cells were washed twice with PBS and media was replaced with MTT reagent at 0.5 mg/ml in Dulbecco's modified Eagle medium (DMEM) without phenol red. The plates were gently shaken and incubated for 4 hours. After the incubation the medium was removed and replaced by DMSO. The plates were gently shaken to solubilize the formazan crystals. Absorbance was measured using an Envision multiplate reader at a wavelength of 570 nm.
# Toxicity of the dibenzyl butyl lactone derivative (3-[(3,4-dimethoxyphenyl)cyclopentyl], 4-[(3-hydroxyphenol)methyl]oxolan-2-one) in prostate cancer cells was evaluated using MTT assay. The same methods as those used in Example 2 were employed, except the cell line used was PC3, a human prostate cancer cell line, and cell cultures were established in Kaighn's modification of Ham's […] medium.
# MTT assay results are shown in Tables 16-21 and expressed as the percentage of cell death after treatment.
# [2] = tested on: human induced pluripotent stem (iPS) cells; settings: human
# Procedure: The dibenzyl butyl lactone derivative enantiomer A and B were compared to enterolactone and tested to determine toxicity using a human pluripotent stem (hPS) cell-based assay that predicts the developmental toxicity potential. […] The current study was conducted using human induced pluripotent stem (iPS) cells.
# The impact of test article exposure on ornithine and cystine metabolism in human induced pluripotent stem (iPS) cells was measured for three test articles (dibenzyl butyl lactone derivative enantiomer A, dibenzyl butyl lactone derivative enantiomer B, and enterolactone) and prediction of the potential for developmental toxicity was made through application of the hPS cell-based assay. Exposure spanned a range of eight treatment levels per test article ranging from 0.03-100 μM.
# The observed decrease in the o/c ratio following exposure to each test article is indicative of the potential for developmental toxicity and/or embryo lethality in vivo at or above the dTP concentration. FIGS. 15A-C show the o/c ratio of dibenzyl butyl lactone derivative enantiomer A (FIG. 15A), dibenzyl butyl lactone derivative enantiomer B (FIG. 15B), and (+/−) enterolactone (FIG. 15C). The graphs in FIGS. 15A-C show the cell viability and o/c/ ratio over concentrations of 0.03-100 μM with the straight horizontal line illustrating the developmental toxicity threshold of 0.85.
# telomerase = telomerase (Homo sapiens, UniProt O14746); experiment: Q-TRAP telomerase activity in MCF7 breast cancer cells; parameters: allow the enzymatic addition of telomeric DNA repeats by endogenous telomerase; endogenous in cells
# Sequence of telomerase (O14746 whole entry): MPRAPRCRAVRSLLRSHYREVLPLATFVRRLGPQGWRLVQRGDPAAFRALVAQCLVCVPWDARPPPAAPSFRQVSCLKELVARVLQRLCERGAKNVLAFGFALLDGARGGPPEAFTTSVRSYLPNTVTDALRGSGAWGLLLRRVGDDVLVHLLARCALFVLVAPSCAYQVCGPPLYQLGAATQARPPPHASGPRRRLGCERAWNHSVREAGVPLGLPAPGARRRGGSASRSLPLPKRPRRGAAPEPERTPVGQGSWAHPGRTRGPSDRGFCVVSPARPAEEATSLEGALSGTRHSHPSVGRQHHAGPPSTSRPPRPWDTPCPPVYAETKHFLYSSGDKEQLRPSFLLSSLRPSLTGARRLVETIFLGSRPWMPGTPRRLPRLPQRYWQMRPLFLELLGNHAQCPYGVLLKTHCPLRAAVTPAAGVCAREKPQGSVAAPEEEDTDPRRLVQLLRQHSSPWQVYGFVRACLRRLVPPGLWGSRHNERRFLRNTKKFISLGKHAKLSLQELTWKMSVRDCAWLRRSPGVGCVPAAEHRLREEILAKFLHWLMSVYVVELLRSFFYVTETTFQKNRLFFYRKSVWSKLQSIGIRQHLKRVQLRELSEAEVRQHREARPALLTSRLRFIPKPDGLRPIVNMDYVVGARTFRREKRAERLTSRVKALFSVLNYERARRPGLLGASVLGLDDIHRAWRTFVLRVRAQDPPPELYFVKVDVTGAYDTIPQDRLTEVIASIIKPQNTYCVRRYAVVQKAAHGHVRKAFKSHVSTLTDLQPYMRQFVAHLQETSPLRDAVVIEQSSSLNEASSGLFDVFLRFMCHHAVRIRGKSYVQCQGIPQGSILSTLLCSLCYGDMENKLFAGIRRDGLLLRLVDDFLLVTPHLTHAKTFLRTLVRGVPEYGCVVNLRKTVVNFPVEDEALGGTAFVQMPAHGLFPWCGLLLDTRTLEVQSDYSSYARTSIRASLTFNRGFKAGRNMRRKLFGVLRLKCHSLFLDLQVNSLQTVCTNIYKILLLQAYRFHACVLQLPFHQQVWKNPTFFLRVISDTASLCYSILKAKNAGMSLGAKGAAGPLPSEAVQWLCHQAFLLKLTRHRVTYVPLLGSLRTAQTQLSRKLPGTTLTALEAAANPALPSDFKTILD
# Sequence of telomerase (O60832 whole entry partner): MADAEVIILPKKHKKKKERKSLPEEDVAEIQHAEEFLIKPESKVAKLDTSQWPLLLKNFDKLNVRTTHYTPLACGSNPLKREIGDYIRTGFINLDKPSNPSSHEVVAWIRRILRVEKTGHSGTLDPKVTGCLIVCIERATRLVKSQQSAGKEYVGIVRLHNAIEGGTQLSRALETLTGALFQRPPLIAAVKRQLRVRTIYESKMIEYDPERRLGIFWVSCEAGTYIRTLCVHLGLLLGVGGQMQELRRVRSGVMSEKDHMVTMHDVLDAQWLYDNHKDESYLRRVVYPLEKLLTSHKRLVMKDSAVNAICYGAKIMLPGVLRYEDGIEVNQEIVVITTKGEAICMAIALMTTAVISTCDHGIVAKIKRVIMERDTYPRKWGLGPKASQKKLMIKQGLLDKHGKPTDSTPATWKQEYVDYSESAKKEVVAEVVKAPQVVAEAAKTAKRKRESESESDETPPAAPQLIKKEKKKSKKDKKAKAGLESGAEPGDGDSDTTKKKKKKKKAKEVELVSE
# Sequence of telomerase (Q9NPE3 whole entry partner): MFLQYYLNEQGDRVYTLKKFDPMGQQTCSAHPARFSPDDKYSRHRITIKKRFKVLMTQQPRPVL
# Sequence of telomerase (Q9NX24 whole entry partner): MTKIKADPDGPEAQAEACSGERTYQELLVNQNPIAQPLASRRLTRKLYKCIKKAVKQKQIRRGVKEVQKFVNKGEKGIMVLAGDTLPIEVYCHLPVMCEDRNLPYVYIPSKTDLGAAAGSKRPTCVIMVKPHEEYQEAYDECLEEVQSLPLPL
# Sequence of telomerase (Q9NY12 whole entry partner): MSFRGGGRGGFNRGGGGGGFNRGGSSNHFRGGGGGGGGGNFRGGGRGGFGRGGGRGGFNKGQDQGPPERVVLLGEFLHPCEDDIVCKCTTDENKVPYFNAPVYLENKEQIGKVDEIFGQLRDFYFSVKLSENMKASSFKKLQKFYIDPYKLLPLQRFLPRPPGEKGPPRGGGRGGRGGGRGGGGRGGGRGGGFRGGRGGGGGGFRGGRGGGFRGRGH
# Sequence of telomerase (Q9BUR4 whole entry partner): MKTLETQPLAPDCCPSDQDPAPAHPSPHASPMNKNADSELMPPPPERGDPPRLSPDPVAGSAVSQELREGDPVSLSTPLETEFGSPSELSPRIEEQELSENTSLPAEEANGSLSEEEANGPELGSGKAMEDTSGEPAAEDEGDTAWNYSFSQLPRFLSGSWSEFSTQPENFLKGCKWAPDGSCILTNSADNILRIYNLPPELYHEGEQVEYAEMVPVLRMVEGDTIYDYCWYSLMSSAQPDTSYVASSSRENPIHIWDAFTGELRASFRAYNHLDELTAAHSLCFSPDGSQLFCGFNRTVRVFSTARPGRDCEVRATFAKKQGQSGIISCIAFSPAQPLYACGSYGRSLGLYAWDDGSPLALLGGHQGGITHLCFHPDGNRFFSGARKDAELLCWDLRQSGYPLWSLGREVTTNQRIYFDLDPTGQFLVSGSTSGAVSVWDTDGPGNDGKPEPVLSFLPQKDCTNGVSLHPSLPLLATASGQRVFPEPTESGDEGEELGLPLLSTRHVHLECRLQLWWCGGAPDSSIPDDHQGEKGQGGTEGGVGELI
smiles,measurement,setting,value
"O=C1OCC(Cc2ccc3c(c2)OCO3)/C1=C\c1cccc(O)c1 (single isomer, unassigned) [Enantiomer B, 3-[(3,4-dimethoxyphenyl)cyclopentyl], 4-[(3-hydroxyphenol)methyl]oxolan-2-one]",Cell death #1 (%),"[1]; PC3, 24 hours, 0.06 μM",−14.60%
same,Cell death #2 (%),"[1]; PC3, 24 hours, 0.06 μM",−12.15%
same,Cell death #3 (%),"[1]; PC3, 24 hours, 0.06 μM",−1.24%
same,Cell death (%) MEAN,"[1]; PC3, 24 hours, 0.06 μM",−9.33%
same,Cell death #1 (%),"[1]; PC3, 24 hours, 0.17 μM",−22.81%
same,Cell death #2 (%),"[1]; PC3, 24 hours, 0.17 μM",−20.24%
same,Cell death #3 (%),"[1]; PC3, 24 hours, 0.17 μM",−14.35%
same,Cell death (%) MEAN,"[1]; PC3, 24 hours, 0.17 μM",−19.13%
same,Cell death #1 (%),"[1]; PC3, 24 hours, 0.51 μM",−15.09%
same,Cell death #2 (%),"[1]; PC3, 24 hours, 0.51 μM",−34.33%
same,Cell death #3 (%),"[1]; PC3, 24 hours, 0.51 μM",−34.94%
same,Cell death (%) MEAN,"[1]; PC3, 24 hours, 0.51 μM",−28.12%
same,Cell death #1 (%),"[1]; PC3, 24 hours, 1.54 μM",−58.35%
same,Cell death #2 (%),"[1]; PC3, 24 hours, 1.54 μM",−51.85%
same,Cell death #3 (%),"[1]; PC3, 24 hours, 1.54 μM",−43.77%
same,Cell death (%) MEAN,"[1]; PC3, 24 hours, 1.54 μM",−51.32%
same,Cell death #1 (%),"[1]; PC3, 24 hours, 4.63 μM",−72.93%
same,Cell death #2 (%),"[1]; PC3, 24 hours, 4.63 μM",−63.74%
same,Cell death #3 (%),"[1]; PC3, 24 hours, 4.63 μM",−39.60%
same,Cell death (%) MEAN,"[1]; PC3, 24 hours, 4.63 μM",−58.76%
same,Cell death #1 (%),"[1]; PC3, 24 hours, 13.89 μM",−71.22%
same,Cell death #2 (%),"[1]; PC3, 24 hours, 13.89 μM",−63.50%
same,Cell death #3 (%),"[1]; PC3, 24 hours, 13.89 μM",−63.74%
same,Cell death (%) MEAN,"[1]; PC3, 24 hours, 13.89 μM",−66.15%
same,Cell death #1 (%),"[1]; PC3, 24 hours, 41.67 μM",−68.77%
same,Cell death #2 (%),"[1]; PC3, 24 hours, 41.67 μM",−35.80%
same,Cell death #3 (%),"[1]; PC3, 24 hours, 41.67 μM",−33.35%
same,Cell death (%) MEAN,"[1]; PC3, 24 hours, 41.67 μM",−45.97%
same,Cell death #1 (%),"[1]; PC3, 24 hours, 125.00 μM",6.23%
same,Cell death #2 (%),"[1]; PC3, 24 hours, 125.00 μM",3.54%
same,Cell death #3 (%),"[1]; PC3, 24 hours, 125.00 μM",4.64%
same,Cell death (%) MEAN,"[1]; PC3, 24 hours, 125.00 μM",4.80%
same,Cell death #1 (%),"[1]; PC3, 72 hours, 0.06 μM",−22.56%
same,Cell death #2 (%),"[1]; PC3, 72 hours, 0.06 μM",−30.41%
same,Cell death #3 (%),"[1]; PC3, 72 hours, 0.06 μM",−23.49%
same,Cell death (%) MEAN,"[1]; PC3, 72 hours, 0.06 μM",−25.49%
same,Cell death #1 (%),"[1]; PC3, 72 hours, 0.17 μM",−33.20%
same,Cell death #2 (%),"[1]; PC3, 72 hours, 0.17 μM",−39.41%
same,Cell death #3 (%),"[1]; PC3, 72 hours, 0.17 μM",−29.79%
same,Cell death (%) MEAN,"[1]; PC3, 72 hours, 0.17 μM",−34.13%
same,Cell death #1 (%),"[1]; PC3, 72 hours, 0.51 μM",−47.57%
same,Cell death #2 (%),"[1]; PC3, 72 hours, 0.51 μM",−52.84%
same,Cell death #3 (%),"[1]; PC3, 72 hours, 0.51 μM",−52.74%
same,Cell death (%) MEAN,"[1]; PC3, 72 hours, 0.51 μM",−51.05%
same,Cell death #1 (%),"[1]; PC3, 72 hours, 1.54 μM",−52.64%
same,Cell death #2 (%),"[1]; PC3, 72 hours, 1.54 μM",−40.34%
same,Cell death #3 (%),"[1]; PC3, 72 hours, 1.54 μM",−51.19%
same,Cell death (%) MEAN,"[1]; PC3, 72 hours, 1.54 μM",−48.05%
same,Cell death #1 (%),"[1]; PC3, 72 hours, 4.63 μM",−45.81%
same,Cell death #2 (%),"[1]; PC3, 72 hours, 4.63 μM",−40.03%
same,Cell death #3 (%),"[1]; PC3, 72 hours, 4.63 μM",−52.74%
same,Cell death (%) MEAN,"[1]; PC3, 72 hours, 4.63 μM",−46.19%
same,Cell death #1 (%),"[1]; PC3, 72 hours, 13.89 μM",−33.31%
same,Cell death #2 (%),"[1]; PC3, 72 hours, 13.89 μM",−22.56%
same,Cell death #3 (%),"[1]; PC3, 72 hours, 13.89 μM",−34.75%
same,Cell death (%) MEAN,"[1]; PC3, 72 hours, 13.89 μM",−30.21%
same,Cell death #1 (%),"[1]; PC3, 72 hours, 41.67 μM",11.03%
same,Cell death #2 (%),"[1]; PC3, 72 hours, 41.67 μM",11.96%
same,Cell death #3 (%),"[1]; PC3, 72 hours, 41.67 μM",14.65%
same,Cell death (%) MEAN,"[1]; PC3, 72 hours, 41.67 μM",12.55%
same,Cell death #1 (%),"[1]; PC3, 72 hours, 125.00 μM",64.88%
same,Cell death #2 (%),"[1]; PC3, 72 hours, 125.00 μM",61.78%
same,Cell death #3 (%),"[1]; PC3, 72 hours, 125.00 μM",57.24%
same,Cell death (%) MEAN,"[1]; PC3, 72 hours, 125.00 μM",61.30%
same,prostate cancer cell death as compared to enterolactone,"[1]; PC3, at higher concentrations, 24 hours and 72 hours post-treatment",increased prostate cancer cell death as compared to enterolactone
same,TP Concentration,[2],49.8 µM
same,"TP concentration, fold lower than (+/−) enterolactone TP",[2],4-6 fold
same,dTP Concentration,[2],15.1 µM
same,dTP and TP concentrations compared with anti-cancer drugs tested in this assay,[2],higher than >90% of the anti-cancer drugs
same,similarity of dTP concentrations between all three compounds,[2],≤ 2 fold
same,Telomerase Activity RTA (%),"telomerase; MCF7, 2.5 μM, 24 Hours",47.79%
same,Telomerase Activity RTA (%),"telomerase; MCF7, 2.5 μM, 48 Hours",23.71%
same,Telomerase Activity RTA (%),"telomerase; MCF7, 2.5 μM, 72 Hours",15.49%
same,Telomerase Activity RTA (%),"telomerase; MCF7, 5 μM, 24 Hours",48.30%
same,Telomerase Activity RTA (%),"telomerase; MCF7, 5 μM, 48 Hours",31.70%
same,Telomerase Activity RTA (%),"telomerase; MCF7, 5 μM, 72 Hours",14.68%
same,Telomerase Activity RTA (%),"telomerase; MCF7, 10 μM, 24 Hours",59.90%
same,Telomerase Activity RTA (%),"telomerase; MCF7, 10 μM, 48 Hours",32.76%
same,Telomerase Activity RTA (%),"telomerase; MCF7, 10 μM, 72 Hours",16.26%
same,Telomerase Activity RTA (%),"telomerase; MCF7, 20 μM, 24 Hours",44.48%
same,Telomerase Activity RTA (%),"telomerase; MCF7, 20 μM, 48 Hours",44.82%
same,Telomerase Activity RTA (%),"telomerase; MCF7, 20 μM, 72 Hours",16.69%
same,Telomerase Activity RTA (%),"telomerase; MCF7, 40 μM, 24 Hours",53.63%
same,Telomerase Activity RTA (%),"telomerase; MCF7, 40 μM, 48 Hours",26.82%
same,Telomerase Activity RTA (%),"telomerase; MCF7, 40 μM, 72 Hours",10.17%
same,IC50,"telomerase; MCF7, 24 h",> 40 µM
same,telomerase activity levels of treated groups compared to control,"telomerase; MCF7, 24 hours",lower telomerase activity levels compared to control
same,Significance of RTA difference vs. control,"telomerase; MCF7, 24 hours, 5 μM",YES (*)
same,Significance of RTA difference vs. control,"telomerase; MCF7, 24 hours, 10 μM",YES (*)
same,Significance of RTA difference vs. control,"telomerase; MCF7, 24 hours, 20 μM",YES (*)
same,Significance of RTA difference vs. control,"telomerase; MCF7, 24 hours, 40 μM",YES (*)
same,IC50,"telomerase; MCF7, 48 h",5.17 µM
same,telomerase activity levels of treated groups compared to control,"telomerase; MCF7, 48 hours","lower telomerase activity levels compared to control, even more pronounced than 24 hours"
same,Significance of RTA difference vs. control,"telomerase; MCF7, 48 hours, 2.5 μM",YES (*)
same,Significance of RTA difference vs. control,"telomerase; MCF7, 48 hours, 10 μM",YES (*)
same,Significance of RTA difference vs. control,"telomerase; MCF7, 48 hours, 40 μM",YES (*)
same,IC50,"telomerase; MCF7, 72 h",> 40 µM
same,telomerase activity levels of treated groups compared to control,"telomerase; MCF7, 72 hours",the group treated with the highest concentration presented lower RTA levels
same,Significance of RTA difference vs. control,"telomerase; MCF7, 72 hours, 2.5 μM",YES (*)
same,telomerase inhibition effect,telomerase; MCF7 breast cancer cells,exhibit a telomerase inhibition effect
